These results are taken from patent publication US20200062789A1, “HYDROXAMIC ACID PRODRUG COMPOUND OR SALT THEREOF, LYOPHILIZED FORMULATION, LPXC INHIBITOR, AND ANTIBACTERIAL AGENT” (FUJIFILM Toyama Chemical Co., Ltd., priority 2017, published 2020).

For series [1], the system named is Pseudomonas aeruginosa (S-2838 strain). Description: Multidrug-resistant Pseudomonas aeruginosa urinary tract infection model test in mice. The format is in vivo. The note with it: ICR female mice, 25 mg/kg once by tail vein 2 hours after infection, kidney count on the day after infection. The method, then:
The mice used were ICR female SPF mice (5 weeks old: 5 mice per group). The inoculum solution was prepared by suspending a clinical isolate of Pseudomonas aeruginosa (S-2838 strain) cultured overnight at 37° C. on a Mueller-Hinton agar plate in sterile saline. The infection was induced by inoculating 0.2 mL (about 10^3 CFU/mouse) of the inoculum solution into the urethra of each mouse. The test compound was dissolved in sterile saline and given once by tail vein administration 2 hours after infection. The count of viable cells in the kidney on the day after infection was recorded and the mean value was calculated.

A short description of series [2]: Stability in 100 mmol/L tris-hydrochloric acid buffer (pH 7.4). The following applies: compared to Example 1. The format is physicochemical.
A short description of series [3]: Solubility test (visual dissolution in physiological saline; saturated solubility). The format is physicochemical. The following applies: saline or isotonic, thermodynamic from solid, 1.2 mg taken, dissolution confirmed visually. The method, then: The compounds of Examples 1 and 2 were taken in an amount of 1.2 mg, physiological saline was added during stirring until dissolution could be confirmed visually, and the solubility was calculated.

Take `CNC(=O)[C@@](C)(C(=O)NO)N(C)C(=O)c1ccc(C#Cc2ccc([C@H](O)COP(=O)(O)O)cc2)cc1` [Comparative Example 1, (S)-2-hydroxy-2-(4-((4-(((S)-1-(hydroxyamino)-2-methyl-3-(methylamino)-1,3-dioxopropan-2-yl)(methyl)carbamoyl)phenyl)ethynyl)phenyl)ethyl phosphate]: the “decrease of count of viable cells in the kidney compared with control group” value in series [1] is recorded as below 4 log CFU/kidney.

Turning to `CNC(=O)[C@@](C)(C(=O)NOC(=O)CCC(=O)O)N(C)C(=O)c1ccc(C#Cc2ccc([C@H](O)CO)cc2)cc1` [Comparative Example 2, 4-(((S)-2-(4-((4-((S)-1,2-dihydroxyethyl)phenyl)ethynyl)-N-methylbenzamide)-2-methy 1-3-(methylamino)-3-oxopropanamide)oxy)-4-oxobutanoic acid], the “stability in buffer (decomposition to compound A)” value in series [2] was “easily decomposed”.

Consider `CNC(=O)[C@@](C)(C(=O)NOP(=O)(O)O)N(C)C(=O)c1ccc(C#Cc2ccc([C@H](O)CO)cc2)cc1` [Example 1, (((S)-2-(4-((4-((S)-1,2-dihydroxyethyl)phenyl)ethynyl)-N-methylbenzamide)-2-methyl-3-(methylamino)-3-oxopropanamide)oxy)phosphonic acid], for which, in series [3], the solubility was above 100 mg/mL.

As to `CNC(=O)[C@@](C)(C(=O)NOCOP(=O)(O)O)N(C)C(=O)c1ccc(C#Cc2ccc([C@H](O)CO)cc2)cc1` [Example 2, (((S)-2-(4-((4-((S)-1,2-dihydroxyethyl)phenyl)ethynyl)-N-methylbenzamide)-2-methyl-3-(methylamino)-3-oxopropanamide)oxy)methyl dihydrogen phosphate], the solubility in series [3] was above 100 mg/mL.
